Tests used:
HBV [1] = assay: Effect of LIPG inhibitor on HBV in Huh7 cell line carrying HBV expression construct (Example 10); format: cell-based, hepatitis B virus; settings: Huh7 cells, inhibitor 1 μM to 100 μM added five days after construct introduction, one week; depending on the concentration
Protocol: An HBV expression construct (HBV-C: provided by Dr. Yasuhito Tanaka at Nagoya City University) was introduced into Huh7 cell line. Five days after the introduction, an LIPG inhibitor (GSK264220A) was added at 1 μM to 100 μM and the cells were cultured.

HBV [2] = assay: shRNA function against HBV infection of fresh human hepatocytes (PHH cells), short-term culture (Example 3); settings: for amount of cccDNA: shRNA alone, lentivirus day 0, HBV day 1, collected day 7; for amount of cccDNA, combined use of ETV: shRNA plus entecavir (ETV) 10 nM from day 2, collected day 7 (short-term culture)
Protocol: Using fresh human hepatocytes (PHH cells) derived from PXB mouse (PhoenixBio Co., Ltd., Hiroshima, Japan), effects of shRNAs against each gene on infection of human hepatocytes with HBV were determined. Experiments were carried out by culturing PHH cells as follows. First, on day 0 of culture, the cells were infected with the lentivirus expressing the shRNA against each of the genes by a conventional method. A serum collected from an HBV-infected chimeric mouse infected with HBV (Genotype C. 5 HBV DNA copies/cell) was added to the cells as an HBV inoculum on day 1 of culture. On day 2 of culture, the cells were washed three times and entecavir (ETV) (10 nM) was added thereto. On day 7 of culture, the cells were collected and the amount of HBV DNA, the amount of HBV cccDNA, and the mRNA level of each gene were determined. The amounts of HBV DNA, HBV cccDNA, and pg RNA were quantified in the same manner as in Example 1.

HCV = HCV replication analysis, JFH1-RNA transfected Huh 7.5 cells (Example 8); settings: Huh7.5 cells, 24, 48 and 72 hours after introduction of HCV RNA (JFH1-RNA)
Protocol: The antiviral activity of the shRNA against Dock11 gene was evaluated using a replicon system for JFH1 strain. HCV replication analysis was performed by transfecting Huh 7.5 cells with synthetic JFH1-RNA. Cells in which DOCK11 was constitutively knocked down were prepared by introducing DOCK11 shRNA #2 into Huh 7.5 cells. Cells into which cont shRNA was introduced were used as a control. Huh 7.5 cells into which each shRNA had been introduced were transfected with 1 μg synthetic RNA (JFH1-RNA) using TransIT®-mRNA Transfection Kit (Mirus). Total RNAs were isolated 24, 48 and 72 hours after the transfection using High Pure RNA Isolation Kit (Roche), and cDNAs were synthesized using high-capacity cDNA reverse transcription kit (Applied Biosystems, Carlsbad, Calif.).

DOCK11 gene = DOCK11 gene expression (mRNA) in Huh 7.5 cells (Example 8); settings: Huh7.5 cells, vs cont shRNA
Protocol: The mRNA of DOCK11 gene was quantified by real time PCR according to a conventional method.
The antiviral activity of the shRNA against Dock11 gene was evaluated using a replicon system for JFH1 strain. HCV replication analysis was performed by transfecting Huh 7.5 cells with synthetic JFH1-RNA. Cells in which DOCK11 was constitutively knocked down were prepared by introducing DOCK11 shRNA #2 into Huh 7.5 cells. Cells into which cont shRNA was introduced were used as a control. Huh 7.5 cells into which each shRNA had been introduced were transfected with 1 μg synthetic RNA (JFH1-RNA) using TransIT®-mRNA Transfection Kit (Mirus). Total RNAs were isolated 24, 48 and 72 hours after the transfection using High Pure RNA Isolation Kit (Roche), and cDNAs were synthesized using high-capacity cDNA reverse transcription kit (Applied Biosystems, Carlsbad, Calif.). […] The expression of DOCK11 gene was evaluated by determining the level of mRNA in the same manner as in Example 2.

HBV [3] = assay: shRNA introduced after established HBV infection of PHHs (Example 6); format: cell-based, hepatitis B virus; settings: shRNA introduced one week after HBV infection, cultured 3 weeks
Protocol: The effects of an shRNA on the proliferation of HBV when PHHs were infected with HBV and then treated with an shRNA were investigated. One week after PHHs were infected with HBV, the shRNA (SEQ ID NO: 2) against Dock11 gene was introduced and the cells were cultured for 3 weeks with culture medium changes.

Compound | amount of cccDNA (HBV [2]) | amount of cccDNA, combined use of ETV (HBV [2]) | other results
Cc1oc(S(=O)(=O)N2CCCCC2)cc1NC(=O)Nc1ccccc1 [GSK264220A] |  |  | amount of HBV DNA (HBV [1]): decreased; amount of HBV cccDNA (HBV [1]): decreased
LIPG #5: lentivirus-expressed shRNA against LIPG gene, SEQ ID NO: 14, used in Examples 3 and 4 (guide CCGGTTACACGGATGCGGTCAATAACTCGAGTTATTGACCGCATCCGTGTAATTTTTG) | decreased | synergistic effect to decrease cccDNA | 
DENND2A #2: lentivirus-expressed shRNA against DENND2A gene, SEQ ID NO: 7, used in Examples 3 and 4 (guide CCGGCCAATGAAGGAGAACCCTTATCTCGAGATAAGGGTTCTCCTTCATTGGTTTTTTG) | dramatically decreased | below the detection sensitivity | amount of cccDNA, combined use of ETV (HBV [2]; listed as shRNA for DENND2A gene): below the detection limit
DOCK11 #2: lentivirus-expressed shRNA against DOCK11 gene, SEQ ID NO: 2, used in Examples 3, 4, 6, 8, 12 (guide CCGGGTACTAGACACCATATCATTTCTCGAGAAATGATATGGTGTCTAGTACTTTTTG) | dramatically decreased | below the detection sensitivity | HCV RNA replication (HCV): effectively suppressed; amount of cccDNA, combined use of ETV (HBV [2]; listed as shRNA for Dock11 gene): below the detection limit; expression level of DOCK11 gene (DOCK11 gene): decreased; cccDNA of HBV (HBV [3]): disappear; pgRNA of HBV (HBV [3]): disappear
HECW2 #3: lentivirus-expressed shRNA against HECW2 gene, SEQ ID NO: 17, used in Examples 3 and 4 (guide CCGGGCACAATACTTGGAGTCAATTCTCGAGAATTGACTCCAAGTATTGTGCTTTTT) | decreased | synergistic effect to decrease cccDNA | 

— patent publication US10709727B2, “Antiviral drugs” (priority 2015, dated 2020)
